Measurements as given in patent EP1143981B1, “USE OF N-GLYCOLNEURAMINIC ACID AND ITS DERIVATIVES FOR THE MANUFACTURE OF A MEDICAMENT FOR THE TREATMENT OF HIV INFECTIONS” (Glukor, Inc., priority 1998, dated 2000).

What was measured:
[1] = system: HIV-1RF; test: CEM-SS cell-based anti-HIV assay (XTT); settings: 3.2µM to 1 mM; CEM-SS cells
Experimental: (§1) Cell Preparation: Prior to infection, CEM-SS cells were grown in complete tissue culture medium (RPMI 1640 medium with 10% heat-inactivated fetal bovine serum, 2mM L-glutamine, 100 U/mL penicillin, 100 µg/mL streptomycin, 10 µg/mL gentamycin) and transferred to T-150 flasks. On the day preceding the assay, the cells were split 1:2 to assure the cells would be in an exponential growth phase at time of infection. On the day of assay, the cells were washed twice with tissue culture medium and resuspended in fresh tissue culture medium. Total cell and viability counting were performed using a hemacytometer and trypan blue dye exclusion. Cell viability was greater than 95% for the cells to be utilized in the assay. […]
Virus Preparation: Pre-tittered aliquots of HIV-1ROJO and HIV-1RF were removed from the freezer (-80°C) and thawed to room temperature in a biological safety cabinet. The virus was resuspended and diluted into tissue culture medium such that the amount of virus added to each well in a volume of 50 µL will be the amount determined to give complete cell killing at 6 days post-infection.
Tetrazolium dye staining of screening plates: After 6 days of incubation (37°C with 5% CO2), the test plates were analyzed by staining with the tetrazolium dye XTT (2,3-b (2-methoxy-4-nitro-5-sulfophenyl)-2H-tetrazolium -5-carboxanilide). […]

[2] = system: PBMCs; type: cell-based; settings: human
Experimental: Fresh human PBMCs were isolated from voluntary Red Cross donors, seronegative for HIV and HBV. Leukophoresed blood was diluted 1:1 with Dulbecco's PBS, layered over 14 mL of Ficoll-Hypaque density gradient in a 50mL centrifuge and then centrifuged for 30 minutes at 600 x g. Banded PBMCs were gently aspirated from the resulting interface and subsequently washed twice with PBS by low speed centrifugation. […] PBMCs were maintained in this medium at a concentration of 1-2 x 10^6 cells/mL with bi-weekly medium changes until used in the assay. […]
(§2) Tetrazolium dye staining of screening plates: After 6 days of incubation (37°C with 5% CO2), the test plates were analyzed by staining with the tetrazolium dye XTT (2,3-b (2-methoxy-4-nitro-5-sulfophenyl)-2H-tetrazolium -5-carboxanilide). XTT-tetrazolium is metabolized by mitochondrial enzymes of metabolically active cells to a soluble formazan product, allowing the rapid quantitative analysis of the inhibition of HIV-induced cell killing by anti-HIV compounds. […] Plates were sealed with adhesive plate sealers and inverted several times to mix the soluble formazan product and the plate was read spectrophotometrically at 450nm with a Molecular Devices Vmax plate reader. Indices such as %CPE Reduction (cytopathic effects), %Cell Viability, IC25, IC50, IC95, TC25, TC50, and TC95 and other indices were calculated. […]

[3] = system: HIV-1IIIB; test: CEM-SS cell-based anti-HIV assay (XTT); settings: 3.2µM to 1 mM; CEM-SS cells
[4] = in vitro; type: cell-based; settings: human, cem-ss cells
Experimental: as §1
as §2, with “reader.” for “reader. Indices such as %CPE Reduction (cytopathic effects), %Cell Viability, IC25, IC50, IC95, TC25, TC50, and TC95 and other indices were calculated.”

With `O=C(CO)N[C@H]1[C@H]([C@H](O)[C@H](O)CO)OC(O)(C(=O)O)C[C@@H]1O` (stereo partly shown) [N-glycolylneuraminic acid] the anti-HIV activity [1] was “did not display anti-HIV activity”, the CC50 [2] was greater than 1000 µM and the anti-HIV activity [3] was “did not display anti-HIV activity”. The CC50 at 144 h [4] was greater than 1000 µM.
